# Assay results: US20170001990A1 (Genentech, Inc., priority 2014, published 2017)
# Molecular target: Human recombinant carboxy-terminal his-tagged LDHA (amino acids 2-332) (Homo sapiens, UniProt P00338)
# Assay: LDHA enzyme inhibition assay (NADH fluorescence)
# Conditions: LDHA IC50 (μM), 1 nM LDHA, NADH and pyruvate, stereochemistry of tested sample given
# Method: Test compounds were diluted in 100% DMSO with 1:3 serial dilutions. […] For the enzyme reaction, serially diluted compounds were added to a mixture of enzyme and NADH. […] Following the baseline read, pyruvate was added to the assay plates and the plates were read with excitation 340 nm and emission 480 nm for 10 minutes every 2.5 seconds. A suitable linear timeframe was selected (150-400 s) to calculate the slope of each concentration tested. The raw data were fitted to 4-parameter dose-response curves using the following equation:
# fit=(A+((B−A)/(1+((C/x)̂D))))
# inv=(C/((((B−A)/(y−A))−)̂(1/D)))
# res=(y−fit) • where A=minimum y, B=maximum y, C=50% y max, and D=slope factor.
# The curve bottom was set to the background rate (initial 5 second recording prior to addition of pyruvate) and curve top was set to no inhibitor (DMSO only) control wells rate.
# The compounds of the present invention were tested for their capacity to inhibit LDHA activity and activation as described in the enzyme inhibition assay described above.
row,IC50 [µM],SMILES
1,0.143,"O=C1CC(c2ccsc2)(c2cccc(OCC3CCCO3)n2)NC(=O)C1Sc1ccccc1Cl (single isomer, unassigned) [Example 195, 3-(2-chlorophenyl)sulfanyl-6-[6-(tetrahydrofuran-2-ylmethoxy)-2-pyridyl]-6-(3-thienyl)piperidine-2,4-dione]"
2,0.012,"O=C1CC(c2ccsc2)(c2cccc(OCC3COC3)n2)NC(=O)C1Sc1ccccc1Cl (single isomer, unassigned) [Example 199, 3-(2-chlorophenyl)sulfanyl-6-[6-(oxetan-3-ylmethoxy)-2-pyridyl]-6-(3-thienyl) piperidine-2,4-dione]"
3,0.01,"O=C1CC(c2ccsc2)(c2cccc(OCC(F)(F)F)n2)NC(=O)C1Sc1ccccc1Cl (single isomer, unassigned) [Example 87, 3-(2-chlorophenyl)sulfanyl-6-(3-thienyl)-6-[6-(2,2,2-trifluoroethoxy)-2-pyridyl]piperidine-2,4-dione]"
4,0.025,"O=C1CC(c2ccsc2)(c2cccc(OCC3COC3)n2)NC(=O)C1Sc1ccccc1Cl (single isomer, unassigned) [Example 236, 3-(2-chlorophenyl)sulfanyl-6-[6-(oxetan-3-ylmethoxy)-2-pyridyl]-6-(3-thienyl) piperidine-2,4-dione]"
5,0.103,"O=C1CC(c2ccsc2)(c2cccc(OCC3COC3)n2)NC(=O)C1Sc1ccccc1Cl (single isomer, unassigned) [Example 225, 3-(2-chlorophenyl)sulfanyl-6-[6-(oxetan-3-ylmethoxy)-2-pyridyl]-6-(3-thienyl) piperidine-2,4-dione]"
6,0.053,"CC(C)(O)CCCOc1cccc(C2(c3ccsc3)CC(=O)C(Sc3ccccc3Cl)C(=O)N2)n1 (single isomer, unassigned) [Example 114, 3-((2-chlorophenyl)thio)-6-(6-((4-hydroxy-4-methyl-pentyl)oxy)pyridin-2-yl)-6-(thiophen-3-yl) piperidine-2,4-dione]"
7,0.056,"COc1ccc(Oc2cccc(C3(c4ccsc4)CC(=O)C(Sc4ccccc4Cl)C(=O)N3)n2)cc1 (stereo not drawn) [Example 59, 3-(2-chlorophenyl)sulfanyl-6-[6-(4-methoxyphenoxy)-2-pyridyl]-6-(3-thienyl) piperidine-2,4-dione]"
8,0.168,CC(Nc1cccc(C2(c3ccsc3)CC(=O)C(Sc3ccccc3Cl)C(=O)N2)n1)C1CC1 (stereo not drawn) [Example 332]
9,0.012,"O=C1CC(c2ccsc2)(c2cccc(Cc3ccc(F)c(F)c3)n2)NC(=O)C1Sc1ccccc1Cl (single isomer, unassigned) [Example 282, 3-((2-chlorophenyl)thio)-6-(6-(3,4-difluorobenzyl)pyridin-2-yl)-6-(thiophen-3-yl)piperidine-2,4-dione]"
10,0.018,"CC1(COc2cccc(C3(c4ccsc4)CC(=O)C(Sc4ccccc4Cl)C(=O)N3)n2)CC1 (single isomer, unassigned) [Example 158, 3-(2-chlorophenyl)sulfanyl-6-[6-[(1-methylcyclo-propyl)methoxy]-2-pyridyl]-6-(3-thienyl)piperidine-2,4-dione]"
11,0.021,"CCC(Nc1cccc(C2(c3ccsc3)CC(=O)C(Sc3ccccc3Cl)C(=O)N2)n1)c1ccc(F)cc1 (stereo not drawn) [Example 304, 3-((2-chlorophenyl)thio)-6-(6-((1-(4-fluoro-phenyl)propyl)amino)pyridin-2-yl)-6-(thiophen-3-yl)piperidine-2,4-dione]"
12,0.197,"CC(C)c1cc(F)ccc1Oc1cccc([C@@]2(c3ccsc3)CC(=O)C(Sc3ccccc3Cl)C(=O)N2)n1 (stereo partly drawn) [Example 319, (6S)-3-(2-chlorophenyl) sulfanyl-6-[6-(4-fluoro-2-isopropyl-phenoxy)-2-pyridyl]-6-(3-thienyl) piperidine-2,4-dione]"
13,0.167,"O=C1CC(c2ccsc2)(c2cccc(Oc3ccc(F)c4cccnc34)n2)NC(=O)C1Sc1ccccc1Cl (stereo not drawn) [Example 98, 3-(2-chlorophenyl)sulfanyl-6-[6-[(5-fluoro-8-quinolyl)oxy]-2-pyridyl]-6-(3-thienyl)piperidine-2,4-dione]"
14,0.017,"O=C1CC(c2ccsc2)(c2cccc(Oc3cccc4cccnc34)n2)NC(=O)C1Sc1ccccc1Cl (stereo not drawn) [Example 88, 33-(2-chlorophenyl) sulfanyl-6-[6-(8-quinolyloxy)-2-pyridyl]-6-(3-thienyl)piperidine-2,4-dione]"
15,0.011,"O=C1CC(c2ccsc2)(c2cccc(Oc3cccc4ncccc34)n2)NC(=O)C1Sc1ccccc1Cl (single isomer, unassigned) [Example 91, 5-((2-chlorophenyl)thio)-4-hydroxy-6′-(quinolin-5-yloxy)-2-(thiophen-3-yl)-2,3-dihydro-[2,2′-bipyridin]-6(1H)-one]"
16,0.072,"COc1ccc(N(C)c2cccc(C3(c4ccsc4)CC(=O)C(Sc4ccccc4Cl)C(=O)N3)n2)cc1 (stereo not drawn) [Example 273, 3-((2-chlorophenyl)thio)-6-(6-((4-methoxyphenyl) (methyl)amino)pyridin-2-yl)-6-(thiophen-3-yl) piperidine-2,4-dione]"

row,IC50 [µM],SMILES
1,0.246,"O=C1CC(c2ccsc2)(c2cccc(OC3CCCc4ccccc43)n2)NC(=O)C1Sc1ccccc1Cl (stereo not drawn) [Example 321, 5-(2-chlorophenyl)sulfanyl-4-hydroxy-2-(6-tetralin-1-yloxy-2-pyridyl)-2-(3-thienyl)-1,3-dihydro-pyridin-6-one]"
2,0.01,"O=C1CC(c2ccsc2)(c2ccc3ccccc3c2)NC(=O)C1Sc1ccccc1Cl (stereo not drawn) [Example 32, 3-(2-chlorophenyl)sulfanyl-6-(2-naphthyl)-6-(3-thienyl)piperidine-2,4-dione]"
3,0.037,"O=C1CC(c2ccsc2)(c2cccc(Nc3ccc(F)c(F)c3Cl)n2)NC(=O)C1Sc1ccccc1Cl (stereo not drawn) [Example 329, 6-[6-(2-chloro-3,4-difluoro-anilino)-2-pyridyl]-3-(2-chlorophenyl)sulfanyl-6-(3-thienyl)piperidine-2,4-dione]"
4,0.105,"CC(Oc1cccc(C2(c3ccsc3)CC(=O)C(Sc3ccccc3Cl)C(=O)N2)n1)c1ccc(F)c(F)c1 (stereo not drawn) [Example 313, 3-((2-chlorophenyl)thio)-6-(6-(1-(3,4-difluoro-phenyl)ethoxy)pyridin-2-yl)-6-(thiophen-3-yl) piperidine-2,4-dione]"
5,0.03,"C[C@@H](Nc1cccc(C2(c3ccsc3)CC(=O)C(Sc3ccccc3Cl)C(=O)N2)n1)c1ccc(F)cc1 (mixture of isomers) [Example 302, 3-((2-chlorophenyl)thio)-6-(6-((1-(4-fluorophenyl)ethyl)amino)pyridin-2-yl)-6-(thiophen-3-yl) piperidine-2,4-dione]"
6,0.009,"O=C1CC(c2ccsc2)(c2cccc(N3CC(C4CCOCC4)C3)n2)NC(=O)C1Sc1ccccc1Cl (stereo not drawn) [Example 232, 3-(2-chlorophenyl)sulfanyl-6-[6-(3-tetrahydropyran-4-ylazetidin-1-yl)-2-pyridyl]-6-(3-thienyl) piperidine-2,4-dione]"
7,0.018,"O=C1CC(c2ccsc2)(c2cccc(NCCC3CC3)n2)NC(=O)C1Sc1ccccc1Cl (single isomer, unassigned) [Example 110, 3-(2-chlorophenyl)sulfanyl-6-[6-(2-cyclopropylethyl-amino)-2-pyridyl]-6-(3-thienyl)piperidine-2,4-dione]"
8,0.039,"O=C1CC(c2ccsc2)(c2cccc(-c3ccnc(N4CCOCC4)c3)n2)NC(=O)C1Sc1ccccc1Cl (stereo not drawn) [Example 261, 3-((2-chlorophenyl)thio)-6-(2′-morpholino-[2,4′-bipyridin]-6-yl)-6-(thiophen-3-yl)piperidine-2,4-dione]"
9,0.12,"O=C1CC(c2ccsc2)(c2cccc(Oc3cccc(F)c3)n2)NC(=O)C1Sc1ccccc1Cl (single isomer, unassigned) [Example 47, 3-(2-chlorophenyl) sulfanyl-6-[6-(3-fluorophenoxy)-2-pyridyl]-6-(3-thienyl)piperidine-2,4-dione]"
10,0.01,"O=C1CC(c2ccsc2)(c2cccc(Oc3ccc(Cl)cc3)n2)NC(=O)C1Sc1ccccc1Cl (stereo not drawn) [Example 58, 6′-(4-chlorophenoxy)-5-((2-chlorophenyl)thio)-4-hydroxy-2-(thiophen-3-yl)-2,3-dihydro-[2,2′-bipyridin]-6(1H)-one]"
11,0.148,CC(Nc1cccc(C2(c3ccsc3)CC(=O)C(Sc3ccccc3Cl)C(=O)N2)n1)C1CC1 (stereo not drawn) [Example 331]
12,0.007,"O=C1CC(c2ccsc2)(c2ccc(N3CCOCC3)cc2O)NC(=O)C1Sc1ccccc1Cl (stereo not drawn) [Example 35, 3-(2-chlorophenyl)sulfanyl-6-(2-hydroxy-4-morpholino-phenyl)-6-(3-thienyl)piperidine-2,4-dione]"
13,0.094,"COCCCOc1cccc(C2(c3ccsc3)CC(=O)C(Sc3ccccc3Cl)C(=O)N2)n1 (single isomer, unassigned) [Example 237, 3-(2-chlorophenyl)sulfanyl-6-[6-(3-methoxypropoxy)-2-pyridyl]-6-(3-thienyl) piperidine-2,4-dione]"
14,0.02,"O=C1CC(c2ccsc2)(c2cccc(Cc3cc(F)cc(F)c3)n2)NC(=O)C1Sc1ccccc1Cl (single isomer, unassigned) [Example 129, 3-((2-chlorophenyl)thio)-6-(6-(3,5-difluorobenzyl)pyridin-2-yl)-6-(thiophen-3-yl)piperidine-2,4-dione]"
15,0.183,"O=C1CC(c2ccsc2)(c2cccc(NCCC3CC3)n2)NC(=O)C1Sc1ccccc1Cl (stereo not drawn) [Example 173, 3-(2-chlorophenyl)sulfanyl-6-[6-(2-cyclopropyl-ethylamino)-2-pyridyl]-6-(3-thienyl)piperidine-2,4-dione]"

row,SMILES,IC50 [µM]
1,"CCC(C)COc1cccc(C2(c3ccsc3)CC(=O)C(Sc3ccccc3Cl)C(=O)N2)n1 (stereo not drawn) [Example 210, 3-(2-chlorophenyl)sulfanyl-6-[6-(2-methylbutoxy)-2-pyridyl]-6-(3-thienyl) piperidine-2,4-dione]",0.008
2,"CC(C)(O)CCCOc1cccc(C2(c3ccsc3)CC(=O)C(Sc3ccccc3Cl)C(=O)N2)n1 (single isomer, unassigned) [Example 135, 3-(2-chlorophenyl)sulfanyl-6-[6-(4-hydroxy-4-methyl-pentoxy)-2-pyridyl]-6-(3-thienyl) piperidine-2,4-dione]",0.04
